Laboratory results reported in US20240116910A1, “Heterocycles as WIP1 Inhibitors” (PMV Pharmaceuticals, Inc., priority 2022, published 2024).

Each compound was assayed against recombinant His-tag Wip1(2-420) protein (amino acids #2-420) (Homo sapiens (Human), UniProt O15297) (assay: Wip1(2-420) phosphatase enzyme FDP assay). Conditions: fluorescein diphosphate (FDP) substrate, RT 2 hours, fluorescence Ex485/Em535; read-out: WIP1 (Truncated 2-420) FDP Assay: IC50.
Assay type: biochemical
Experimental: The Human Wip1 (2-420, aa 2-420) or Wip1 full length (aa 1-605) DNA sequence was codon optimized and synthesized by Genscript for insect cell expression. The open reading frame of Wip1(2-420) with a N-terminal-His6 affinity tag followed by a TEV cleavage site was subcloned sites into the pFastBac1 expression vector. The recombinant bacmid DNA was transfected in Sf9 insect cells for baculovirus production. After 72 hours infection, the Sf9 cells were harvested by centrifugation and resuspended in lysis buffer containing 50 mM Tris/HCl, pH 8.0, 500 mM NaCl, 20% glycerol, Benzonase 0.5% CHAPS and Roche cOmplete™ EDTA free protease inhibitors. Cells were disrupted with microfluidizer and the debris was removed by centrifugation at 185,000 g for 1 hour. The supernatant was subjected to HisTrap FF for affinity purification. Proteins were eluted with a linear gradient of 0-500 mM imidazole in HisTrap buffer containing 50 mM Tris/HCl, pH 8.0, 500 mM NaCl and 20% glycerol, 0.05% CHAPS. The eluted protein was dialyzed against dialysis buffer (20 mM MES, 100 mM NaCl, 20% glycerol, 0.5 mM TCEP, 0.05% CHAPS) followed purification via HiTrap SP HP column. The protein was eluted with a gradient of 100 mM-2 M NaCl in dialysis buffer. His6-[…] was finally concentrated and loaded onto a size-exclusion column (NiLoad 16/600 Superdex 200 pg, GE Healthcare) pre-equilibrated with 50 mM MOPS (pH 7.5), 200 mM NaCl, 20% glycerol, 1 mM TCEP, 0.05% CHAPS and 0.1 mM EGTA. The peak fractions containing purified Nis6-Wip1(2-420) were pooled and concentrated to 1.0 mg/mL and flash frozen at −80° C.
Wip1 Length and Wip1(2-420) Phosphatase Enzyme FDP Assays.
Test compounds (252 mM stock in DMSO) were diluted 3 folds in series in DMSO and 1.2 μl per well were added into 384-well polypropylene black plates (Nunc). Twelve μl per well of Assay Buffer (100 mM NaCl, 50 mM MOPS, pH 7.5, 0.8 mM CHAPS, 0.1 mM EGTA, 30 mM MgCl2, 0.3 mM TCEP, 0.2 mg/mL BSA) was added followed by […] per well of 50.4 nM recombinant His-tag Wip1 full length protein (amino acids #1-605) or recombinant His-tag Wip1(2-420) protein (amino acids #2-420) in Assay Buffer and the plate was incubated at RT (22° C.) for 5 min. Ten mM of fluorescein diphosphate (FDP) in DMSO was diluted to […] in Assay Buffer and […] per well was added to the plate and incubated at RT (22° C.) for 2 hours. […] per well of 64.1 mM EDTA in water were added to stop the enzyme reaction. The plate was centrifuged at 1,200 rpm (Eppendorf 5810R Plate centrifuge) for 1 minute and fluorescence intensity (Ex485/Em535) was measured on Perkin Elmer Victor Reader. EC50 values were calculated using either Prism (GraphPad) or ActivityBase software (IDBS), The IC50 results are provided in Table M.

Chain of recombinant His-tag Wip1(2-420) protein (amino acids #2-420) (O15297 2-420): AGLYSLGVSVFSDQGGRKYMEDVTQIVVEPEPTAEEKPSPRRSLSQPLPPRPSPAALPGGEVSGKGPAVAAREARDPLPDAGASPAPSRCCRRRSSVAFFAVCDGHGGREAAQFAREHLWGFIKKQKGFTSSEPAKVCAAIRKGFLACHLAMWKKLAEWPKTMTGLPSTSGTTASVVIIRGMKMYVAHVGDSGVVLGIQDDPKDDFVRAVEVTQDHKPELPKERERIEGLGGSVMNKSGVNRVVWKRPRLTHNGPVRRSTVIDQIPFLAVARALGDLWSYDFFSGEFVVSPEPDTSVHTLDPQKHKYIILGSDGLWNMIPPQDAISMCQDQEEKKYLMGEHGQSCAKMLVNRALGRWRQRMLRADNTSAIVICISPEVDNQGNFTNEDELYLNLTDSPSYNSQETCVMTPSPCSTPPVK

| SMILES | IC50 |
| --- | --- |
| Cc1ncc(Cl)cc1N[C@@H](C)c1ccc(C(=O)N[C@@H](CC2CCCCC2)C(=O)NC23CC(C2)C3)s1 [Compound 109, (2S)-N-{bicyclo[1.1.1]pentan-1-yl}-2-({5-[(1S)-1-[(5-chloro-2-methylpyridin-3-yl)amino]ethyl]thiophen-2-yl}formamido)-3-cyclohexylpropanamide] | 8 nM |
| Cc1ncc(Cl)cc1N[C@H](c1ccc(C(=O)N[C@@H](CC2CCCC2)C(=O)NC2CC2)s1)C(F)(F)F [Compound 185, (2S)-2-({5-[(1S)-1-[(5-chloro-2-methylpyridin-3-yl)amino]-2,2,2-trifluoroethyl]thiophen-2-yl}formamido)-3-cyclopentyl-N-cyclopropylpropanamide] | 61 nM |
| COCCOCCNC(=O)[C@H](CC1CCCC1)NC(=O)c1ccc([C@H](C)Nc2cc(Cl)cnc2C)s1 [Compound 204, (2S)-2-({5-[(1S)-1-[(5-chloro-2-methylpyridin-3-yl)amino]ethyl]thiophen-2-yl}formamido)-3-cyclopentyl-N-[2-(2-methoxyethoxy)ethyl]propanamide] | 102 nM |
| COc1cccc(-c2ncc(Cl)cc2N[C@H](C)c2ccc(C(=O)N[C@@H](CC3CCCC3)C(=O)NC3CC3)s2)c1 [Compound 268, (2S)-2-({5-[(1R)-1-{[5-chloro-2-(3-methoxyphenyl)pyridin-3-yl]amino}ethyl]thiophen-2-yl}formamido)-3-cyclopentyl-N-cyclopropylpropanamide] | 482 nM |
| Cc1ncc(Cl)cc1N[C@@H](C)c1ccc(C(=O)N[C@@H](CC2CCCC2)C(=O)NCCF)s1 [Compound 271, (2S)-2-({5-[(1S)-1-[(5-chloro-2-methylpyridin-3-yl)amino]ethyl]thiophen-2-yl}formamido)-3-cyclopentyl-N-(2-fluoroethyl)propanamide] | 10 nM |
| COc1ncc(Cl)cc1N[C@H](C)c1ccc(C(=O)N[C@@H](CC2CCCC2)C(=O)NC23CC(C#N)(C2)C3)s1 [Compound 83, (2S)-2-({5-[(1R)-1-[(5-chloro-2-methoxypyridin-3-yl)amino]ethyl]thiophen-2-yl}formamido)-N-{3-cyanobicyclo[1.1.1]pentan-1-yl}-3-cyclopentylpropanamide] | 484 nM |
| Cc1ncc(Cl)cc1N[C@@H](C)c1ccc(C(=O)NC2Cc3ccccc3NC2=O)s1 (stereo partly drawn) [Compound 253, 5-[(1S)-1-[(5-chloro-2-methylpyridin-3-yl)amino]ethyl]-N-(2-oxo-1,2,3,4-tetrahydroquinolin-3-yl)thiophene-2-carboxamide] | > 10000 nM |
| COc1ccccc1-c1ncc(Cl)cc1N[C@@H](C)c1ccc(C(=O)N[C@@H](CC2CCCC2)C(=O)NC2CC2)s1 [Compound 242, (2S)-2-({5-[(1S)-1-{[5-chloro-2-(2-methoxyphenyl)pyridin-3-yl]amino}ethyl]thiophen-2-yl}formamido)-3-cyclopentyl-N-cyclopropylpropanamide] | 7 nM |
| Cc1ncc(Cl)cc1N[C@H](Cc1ccccc1)c1ccc(C(=O)N[C@@H](CC2CCCC2)C(=O)NC23CC(C#N)(C2)C3)s1 [Compound 213, (2S)-2-({5-[(1R)-1-[(5-chloro-2-methylpyridin-3-yl)amino]-2-phenylethyl]thiophen-2-yl}formamido)-N-{3-cyanobicyclo[1.1.1]pentan-1-yl}-3-cyclopentylpropanamide] | 166 nM |

Continued by falling IC50, values first:

| IC50 | SMILES |
| --- | --- |
| 472 nM | C[C@@H](Nc1cc(Cl)cnc1CO)c1ccc(C(=O)N[C@@H](CC2CCCC2)C(=O)NC2CC2)s1 [Compound 106, (2S)-2-({5-[(1R)-1-{[5-chloro-2-(hydroxymethyl)129yridine-3-yl]amino}ethyl]thiophen-2-yl}formamido)-3-cyclopentyl-N-cyclopropylpropanamide] |
| 131 nM | Cc1ncc(Cl)cc1N[C@@H](c1ccc(C(=O)N[C@@H](CC2CCCC2)C(=O)NC2CC2)s1)C(F)(F)F [Compound 184, (2S)-2-({5-[(1R)-1-[(5-chloro-2-methylpyridin-3-yl)amino]-2,2,2-trifluoroethyl]thiophen-2-yl}formamido)-3-cyclopentyl-N-cyclopropylpropanamide] |
| 19 nM | CC(Nc1cc(Cl)cnc1C(F)(F)F)c1ccc(C(=O)N[C@@H](CC2CCCC2)C(=O)NC2CC2)s1 (stereo partly drawn) [Compound 202, (2S)-2-{[5-(1-{[5-chloro-2-(trifluoromethyl)pyridin-3-yl]amino}ethyl)thiophen-2-yl]formamido}-3-cyclopentyl-N-cyclopropylpropanamide] |
| 19 nM | COC(=O)CNC(=O)[C@H](CC1CCCC1)NC(=O)c1ccc([C@H](C)Nc2cc(Cl)cnc2C)s1 [Compound 91, methyl 2-[(2S)-2-({5-[(1S)-1-[(5-chloro-2-methylpyridin-3-yl)amino]ethyl]thiophen-2-yl}formamido)-3-cyclopentylpropanamido]acetate] |
| 18 nM | C[C@H](Nc1cc(Cl)cnc1CO)c1ccc(C(=O)N[C@@H](CC2CCCC2)C(=O)NC2CC2)s1 [Compound 105, (2S)-2-({5-[(1S)-1-{[5-chloro-2-(hydroxymethyl)129yridine-3-yl]amino}ethyl]thiophen-2-yl}formamido)-3-cyclopentyl-N-cyclopropylpropanamide] |
| 16 nM | C[C@@H](c1ccc(C(=O)N[C@@H](CC2CCCC2)C(=O)NC2CC2)s1)N1CCCc2ccc(Cl)cc21 [Compound 248, (2S)-2-({5-[(1S)-1-(7-chloro-1,2,3,4-tetrahydroquinolin-1-yl)ethyl]thiophen-2-yl}formamido)-3-cyclopentyl-N-cyclopropylpropanamide] |
| 13 nM | C[C@H](Nc1cc(Cl)cnc1-c1cccnc1)c1ccc(C(=O)N[C@@H](CC2CCCC2)C(=O)NC2CC2)s1 [Compound 232, (2S)-2-({5-[(1S)-1-({5-chloro-[2,3′-bipyridin]-3-yl}amino)ethyl]thiophen-2-yl}formamido)-3-cyclopentyl-N-cyclopropylpropanamide] |
| 10 nM | Cc1ncc(Cl)cc1N[C@@H](C)c1ccc(C(=O)N[C@@H](CC2CCCC2)C(=O)Nc2ccn(C)n2)s1 [Compound 154, (2S)-2-({5-[(1S)-1-[(5-chloro-2-methylpyridin-3-yl)amino]ethyl]thiophen-2-yl}formamido)-3-cyclopentyl-N-(1-methyl-1H-pyrazol-3-yl)propanamide] |
| 8 nM | C[C@H](Nc1cc(Cl)cnc1-c1cccc(Cl)c1)c1ccc(C(=O)N[C@@H](CC2CCCC2)C(=O)NC2CC2)s1 [Compound 231, (2S)-2-({5-[(1S)-1-{[5-chloro-2-(3-chlorophenyl)pyridin-3-yl]amino}ethyl]thiophen-2-yl}formamido)-3-cyclopentyl-N-cyclopropylpropanamide] |
| 7 nM | Cc1ncc(Cl)cc1N[C@@H](C)c1ccc(C(=O)N[C@@H](CC2CCCC2)C(=O)N[C@@H]2CC[C@H](F)C2)s1 [Compound 258, (2S)-2-({5-[(1S)-1-[(5-chloro-2-methylpyridin-3-yl)amino]ethyl]thiophen-2-yl}formamido)-3-cyclopentyl-N-[(1R,3S)-3-fluorocyclopentyl]propanamide] |
| 6 nM | CNC(=O)c1ncc(Cl)cc1N[C@@H](C)c1ccc(C(=O)N[C@@H](CC2CCCC2)C(=O)NC2CC2)s1 [Compound 196, 5-chloro-3-{[(1S)-1-(5-{[(1S)-2-cyclopentyl-1-(cyclopropylcarbamoyl)ethyl]carbamoyl}thiophen-2-yl)ethyl]amino}-N-methylpyridine-2-carboxamide] |
| 6 nM | Cc1ncc(Cl)cc1N[C@@H](C)c1ccc(C(=O)N[C@@H](CC23CCC(CC2)CC3)C(=O)NC2CC2)s1 [Compound 256, (2S)-3-{bicyclo[2.2.2]octan-1-yl}-2-({5-[(1S)-1-[(5-chloro-2-methylpyridin-3-yl)amino]ethyl]thiophen-2-yl}formamido)-N-cyclopropylpropanamide] |
| 4 nM | Cc1ncc(Cl)cc1N[C@@H](C)c1ccc(C(=O)NC(CC2CCCC2)C(=O)Nc2c[nH]nn2)s1 (stereo partly drawn) [Compound 134, 2-({5-[(1S)-1-[(5-chloro-2-methylpyridin-3-yl)amino]ethyl]thiophen-2-yl}formamido)-3-cyclopentyl-N-(1H-1,2,3-triazol-4-yl)propanamide] |
